According to patent US7807658B2, “Use of GabaB receptor agonists” (AstraZeneca AB, priority 1999, dated 2010):

- melting point: 126 to 127 °C
SMILES: NCC(=O)C[PH](=O)O
